For this assay, the system named is diaphorase. Put plainly: fluorescently labeled diaphorase binding to peptide array with or without excess FAD. To be noted: for 1 microM FAD (array fluorescence of bound diaphorase) / 1 micro no FAD (array fluorescence of bound diaphorase): 1 micromolar labeled diaphorase; for 1 microM FAD (array fluorescence of bound diaphorase) / 10 microM FAD (array fluorescence of bound diaphorase): excess FAD present; for 1 microM FAD (array fluorescence of bound diaphorase) / 1 micro no FAD (array fluorescence of bound diaphorase) / 10 microM FAD (array fluorescence of bound diaphorase) / 10 microM no FAD (array fluorescence of bound diaphorase): 65535 is detector saturation; for 10 microM FAD (array fluorescence of bound diaphorase) / 10 microM no FAD (array fluorescence of bound diaphorase): 10 micromolar labeled diaphorase; for 1 microM noFAD/FAD / 10 microM noFAD/FAD: ratio of binding without FAD to binding with FAD; for 1 microM noFAD/FAD / Meas. ratio: 1 micromolar diaphorase; for 10 microM noFAD/FAD: 10 micromolar diaphorase; for Meas. ratio: ratio without/with FAD calculated from measured binding values. As for the experimental part:
Measurements were performed in which diaphorase was bound to an array of about 126,000 unique sequences. The sequences were chosen simply to cover sequence space. 16 of the natural 20 amino acids were used to make up these sequences with C, I, M and T omitted. The diaphorase was fluorescently labeled and each peptide sequence feature was scanned and fluorescence recorded on the array. Diaphorase bound tightly to some peptides and not at all to others. Two different concentrations of diaphorase were used, 1 and 10 micromolar, and the diaphorase was either bound in the presence of excess FAD or not. […] Indeed the Pearson correlation coefficient between w/ and w/o FAD was >0.97, which actually speaks to the reproducibility of this dataset. However, there are some differences as shown on the scatter plot of FIG. 1. When one takes a ratio of the binding without FAD and the binding with FAD, one finds the following top 30 ratios (Table 1): Note that all these sequences end with a GSG linker sequence. Because there are two concentrations, one can easily check for consistency. Note that 65535 is detector saturation, so one has to ignore those values. For this reason, the lower concentration is used most of the time. […] It appears that this was some kind of error and was ignored in subsequent analysis. A similar conclusion can be made with the 7th highest value. Looking at the sequences, RW or at least R or K followed by a nonpolar or aromatic amino acid at the N-terminus. This is interesting as FAD is negatively charged, though the adenine in FAD looks a bit like tryptophan (see FIG. 2).

For the sequence “RWRYYWKSEGSG [array peptide with C-terminal GSG linker]”, the “1 microM FAD (array fluorescence of bound diaphorase)” value came to 4093.5, the “1 micro no FAD (array fluorescence of bound diaphorase)” value is given as 11043, the “10 microM FAD (array fluorescence of bound diaphorase)” value is recorded as 51412.25 and the “10 microM no FAD (array fluorescence of bound diaphorase)” value was 65535. Further, the “1 microM noFAD/FAD” value stood at 2.698, the “10 microM noFAD/FAD” value turned out to be 1.275 and the Meas. ratio was 2.70.
On to “EGYANKLLALFSGSG [array peptide with C-terminal GSG linker]”, for which the “1 microM FAD (array fluorescence of bound diaphorase)” value worked out at 1727, the “1 micro no FAD (array fluorescence of bound diaphorase)” value is reported as 1034, the “10 microM FAD (array fluorescence of bound diaphorase)” value was determined as 10408.25 and the “10 microM no FAD (array fluorescence of bound diaphorase)” value was 6648. Besides, the “1 microM noFAD/FAD” value was 0.5987, the “10 microM noFAD/FAD” value is 0.6387 and the Meas. ratio was 0.60.
In the case of “RLQYLFKSDGSG [array peptide with C-terminal GSG linker]”, the “1 microM FAD (array fluorescence of bound diaphorase)” value is listed as 1964.75, the “1 micro no FAD (array fluorescence of bound diaphorase)” value is 5778.25, the “10 microM FAD (array fluorescence of bound diaphorase)” value amounted to 30591 and the “10 microM no FAD (array fluorescence of bound diaphorase)” value was found to be 64328.25. Besides, the “1 microM noFAD/FAD” value was 2.941, the “10 microM noFAD/FAD” value is reported as 2.103 and the Meas. ratio is recorded as 2.94.
PQKSNHFHEAQKR: the Meas. ratio is 2.41.
For the sequence “VVQALFDGSG [array peptide with C-terminal GSG linker]”, the “1 microM FAD (array fluorescence of bound diaphorase)” value is reported as 2304.25, the “1 micro no FAD (array fluorescence of bound diaphorase)” value was determined as 1467.5, the “10 microM FAD (array fluorescence of bound diaphorase)” value was 21180.25 and the “10 microM no FAD (array fluorescence of bound diaphorase)” value is listed as 9478.25. Also, the “1 microM noFAD/FAD” value amounted to 0.6369, the “10 microM noFAD/FAD” value is listed as 0.4475 and the Meas. ratio is given as 0.64.
On to “RWQYYNQKFGSG [array peptide with C-terminal GSG linker]”, for which the “1 microM FAD (array fluorescence of bound diaphorase)” value was found to be 5458, the “1 micro no FAD (array fluorescence of bound diaphorase)” value turned out to be 15697.5, the “10 microM FAD (array fluorescence of bound diaphorase)” value was determined as 65535 and the “10 microM no FAD (array fluorescence of bound diaphorase)” value is listed as 65535. The “1 microM noFAD/FAD” value stood at 2.876, the “10 microM noFAD/FAD” value is given as 1 and the Meas. ratio is reported as 2.88.
Turning to “FQFGKVVSDGSG [array peptide with C-terminal GSG linker]”, the “1 microM FAD (array fluorescence of bound diaphorase)” value came to 2470, the “1 micro no FAD (array fluorescence of bound diaphorase)” value came to 1574.5, the “10 microM FAD (array fluorescence of bound diaphorase)” value is recorded as 20187.75 and the “10 microM no FAD (array fluorescence of bound diaphorase)” value is 12735.5. The “1 microM noFAD/FAD” value was determined as 0.6374, the “10 microM noFAD/FAD” value is 0.6309 and the Meas. ratio was 0.64.
Consider “SGVLQFFGGSG [array peptide with C-terminal GSG linker]”, for which the Meas. ratio is given as 0.70.
On to “RYYPAFSGGSG [array peptide with C-terminal GSG linker]”, for which the “1 microM FAD (array fluorescence of bound diaphorase)” value is listed as 7535.25, the “1 micro no FAD (array fluorescence of bound diaphorase)” value amounted to 21898, the “10 microM FAD (array fluorescence of bound diaphorase)” value turned out to be 65535 and the “10 microM no FAD (array fluorescence of bound diaphorase)” value turned out to be 65535. Further, the “1 microM noFAD/FAD” value was determined as 2.906, the “10 microM noFAD/FAD” value was found to be 1 and the Meas. ratio is given as 2.91.
For “LDRLGEYQFSGSG [array peptide with C-terminal GSG linker]”, the “1 microM FAD (array fluorescence of bound diaphorase)” value stood at 1164.75, the “1 micro no FAD (array fluorescence of bound diaphorase)” value is 709.25, the “10 microM FAD (array fluorescence of bound diaphorase)” value is 7142.5 and the “10 microM no FAD (array fluorescence of bound diaphorase)” value is 2995.75. For the same sequence, the “1 microM noFAD/FAD” value was 0.6089, the “10 microM noFAD/FAD” value is given as 0.4194 and the Meas. ratio was 0.61.
With YQRHQNVFAKSGG, the Meas. ratio is 2.56.
The same measure, in the same setting: in the case of PVPWRHVNYAHSG it was 0.69.
In the case of “PRSFGYNNVGGSG [array peptide with C-terminal GSG linker]”, the “1 microM FAD (array fluorescence of bound diaphorase)” value is listed as 2525.5, the “1 micro no FAD (array fluorescence of bound diaphorase)” value is given as 6842.5, the “10 microM FAD (array fluorescence of bound diaphorase)” value was 40495.5 and the “10 microM no FAD (array fluorescence of bound diaphorase)” value came to 65535. For the same sequence, the “1 microM noFAD/FAD” value worked out at 2.709, the “10 microM noFAD/FAD” value was 1.618 and the Meas. ratio was 2.71.
As for AWVELEYQYVFEG, the Meas. ratio is reported as 0.74.
For “YRPYGPVYNGGSG [array peptide with C-terminal GSG linker]”, the “1 microM FAD (array fluorescence of bound diaphorase)” value came to 6762.5, the “1 micro no FAD (array fluorescence of bound diaphorase)” value came to 18709.5, the “10 microM FAD (array fluorescence of bound diaphorase)” value was found to be 65535 and the “10 microM no FAD (array fluorescence of bound diaphorase)” value was found to be 65535. Further, the “1 microM noFAD/FAD” value turned out to be 2.767, the “10 microM noFAD/FAD” value amounted to 1 and the Meas. ratio is reported as 2.77.
With “YRYGWQKYGGSG [array peptide with C-terminal GSG linker]”, the Meas. ratio is 2.43.
Same read-out and setting: to “WHLLGWVGYGGSG [array peptide with C-terminal GSG linker]” belongs 0.70.
The same measure, in the same setting: to KEDKVFGFRFDGS belongs 0.70.
Turning to “RWYKNGGSG [array peptide with C-terminal GSG linker]”, the “1 microM FAD (array fluorescence of bound diaphorase)” value stood at 3658, the “1 micro no FAD (array fluorescence of bound diaphorase)” value was found to be 10176.5, the “10 microM FAD (array fluorescence of bound diaphorase)” value amounted to 46265.5 and the “10 microM no FAD (array fluorescence of bound diaphorase)” value was found to be 64775. The “1 microM noFAD/FAD” value was found to be 2.782, the “10 microM noFAD/FAD” value is 1.4 and the Meas. ratio was 2.78.
Consider FYNFGYQDLEDGS, for which the Meas. ratio is listed as 0.75.
The same measure, in the same setting: to NHLLEGAFVSEGS belongs 0.77.
For the sequence WRVQAWRPNKVEG, the Meas. ratio was 2.43.
Same read-out and setting: in the case of “YRGAGKNKGGSG [array peptide with C-terminal GSG linker]” it was 1.49.
As to “RPLQVQRGGSG [array peptide with C-terminal GSG linker]”, the “1 microM FAD (array fluorescence of bound diaphorase)” value turned out to be 14421.5, the “1 micro no FAD (array fluorescence of bound diaphorase)” value worked out at 5406, the “10 microM FAD (array fluorescence of bound diaphorase)” value came to 41059.5 and the “10 microM no FAD (array fluorescence of bound diaphorase)” value came out at 53243. Also, the “1 microM noFAD/FAD” value is given as 0.3749, the “10 microM noFAD/FAD” value is 1.297 and the Meas. ratio is listed as 0.37.
In the case of VSWVFGLGHEGGS, the Meas. ratio is recorded as 0.71.
With “RWKYQKFNGGSG [array peptide with C-terminal GSG linker]”, the “1 microM FAD (array fluorescence of bound diaphorase)” value is 3860.75, the “1 micro no FAD (array fluorescence of bound diaphorase)” value worked out at 10165, the “10 microM FAD (array fluorescence of bound diaphorase)” value was 46173.5 and the “10 microM no FAD (array fluorescence of bound diaphorase)” value amounted to 61301.5. Moreover, the “1 microM noFAD/FAD” value was determined as 2.633, the “10 microM noFAD/FAD” value came out at 1.328 and the Meas. ratio was 2.63.
Consider “RYNLYKPSDGSG [array peptide with C-terminal GSG linker]”, for which the “1 microM FAD (array fluorescence of bound diaphorase)” value was 1245.75, the “1 micro no FAD (array fluorescence of bound diaphorase)” value was 3569.5, the “10 microM FAD (array fluorescence of bound diaphorase)” value is given as 18165 and the “10 microM no FAD (array fluorescence of bound diaphorase)” value turned out to be 50327.75. Also, the “1 microM noFAD/FAD” value came to 2.865, the “10 microM noFAD/FAD” value came out at 2.771 and the Meas. ratio is recorded as 2.87.
For the sequence “DLDKAFGGSG [array peptide with C-terminal GSG linker]”, the “1 microM FAD (array fluorescence of bound diaphorase)” value came out at 2049.75, the “1 micro no FAD (array fluorescence of bound diaphorase)” value came to 607.25, the “10 microM FAD (array fluorescence of bound diaphorase)” value is on record as 2142.25 and the “10 microM no FAD (array fluorescence of bound diaphorase)” value came to 1853. In addition, the “1 microM noFAD/FAD” value stood at 0.2963, the “10 microM noFAD/FAD” value was determined as 0.865 and the Meas. ratio was 0.30.
For the sequence “KEAPGPRFGGSG [array peptide with C-terminal GSG linker]”, the “1 microM FAD (array fluorescence of bound diaphorase)” value was determined as 8281.5, the “1 micro no FAD (array fluorescence of bound diaphorase)” value worked out at 1071.25, the “10 microM FAD (array fluorescence of bound diaphorase)” value stood at 5467.5 and the “10 microM no FAD (array fluorescence of bound diaphorase)” value was 5614.5. In addition, the “1 microM noFAD/FAD” value stood at 0.1294, the “10 microM noFAD/FAD” value worked out at 1.027 and the Meas. ratio is on record as 0.13.

(Values after patent publication US20190064177A1, “INCORPORATING COMPETITIVE BINDING INFORMATION INTO MOLECULAR ARRAY ANALYSIS TO GENERATE FUNCTION NETWORKS OF INTERACTIONS” (ARIZONA BOARD OF REGENTS ON BEHALF OF ARIZONA STATE …, priority 2017, published 2019).)
